The values that follow come from ChEMBL document CHEMBL5029175, “Discovery of MK-4688: an Efficient Inhibitor of the HDM2-p53 Protein-Protein Interaction” (J Med Chem, 2021).

SMILES strings stand for the structures.

As a reminder, the logD is lipophilicity at a set pH, counting ionised and neutral species. A high value points to higher lipophilicity. Usually IC50 stands for the concentration that inhibits the measured activity by half. High values mean weaker potency, low ones greater potency. A word on the MRT: it is a mean duration of stay, worked out from the concentration-time curve. Broadly, the bioavailability is the share of a dose that reaches the circulation, judged against a reference dose that is usually intravenous. A lower bioavailability goes with poor availability.

A short description of series [1]: Lipophilicity, logD of the compound at pH 7 by RP-HPLC analysis. Particulars: buffer. It counts as physicochemical.
For series [2], the target named is T1, Tumour suppressor p53/oncoprotein Mdm2 (Homo sapiens, UniProt Q00987). As to the kind of experiment: Inhibition of HDM2/p53 interaction in human HCT-116 cells expressing p53RE/Bla incubated for 16 hrs by beta-lactamase reporter gene assay. It is filed as cell-based.
T1 sequence (P04637 whole entry): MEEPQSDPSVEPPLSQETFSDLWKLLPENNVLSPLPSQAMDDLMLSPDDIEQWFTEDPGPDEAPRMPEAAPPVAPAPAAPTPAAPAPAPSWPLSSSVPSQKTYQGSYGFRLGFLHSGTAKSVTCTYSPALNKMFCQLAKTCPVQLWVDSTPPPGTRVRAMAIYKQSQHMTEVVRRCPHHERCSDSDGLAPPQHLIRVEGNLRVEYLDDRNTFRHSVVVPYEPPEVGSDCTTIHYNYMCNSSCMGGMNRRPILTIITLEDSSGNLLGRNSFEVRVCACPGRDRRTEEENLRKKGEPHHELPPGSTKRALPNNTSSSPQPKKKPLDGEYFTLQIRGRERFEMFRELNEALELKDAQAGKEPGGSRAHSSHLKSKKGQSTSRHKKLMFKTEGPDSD
T1 sequence (Q00987 whole entry): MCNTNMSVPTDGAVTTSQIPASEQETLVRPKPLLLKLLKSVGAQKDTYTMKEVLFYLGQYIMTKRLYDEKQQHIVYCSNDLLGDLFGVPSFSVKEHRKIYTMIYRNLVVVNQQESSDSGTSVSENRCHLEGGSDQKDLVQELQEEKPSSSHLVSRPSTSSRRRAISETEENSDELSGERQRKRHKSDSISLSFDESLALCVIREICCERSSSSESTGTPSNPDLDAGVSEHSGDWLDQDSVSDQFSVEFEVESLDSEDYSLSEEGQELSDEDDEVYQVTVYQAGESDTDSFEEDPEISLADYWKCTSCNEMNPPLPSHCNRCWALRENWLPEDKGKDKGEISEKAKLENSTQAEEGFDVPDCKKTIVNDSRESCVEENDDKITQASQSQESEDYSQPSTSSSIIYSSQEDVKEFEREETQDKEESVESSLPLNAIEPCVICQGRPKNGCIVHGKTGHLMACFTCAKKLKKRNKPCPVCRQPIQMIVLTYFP
Another series concerns HCT-116. As to the kind of experiment: cells. The following applies: Homo sapiens, HCT-116, 72 h.
Series [3] is described as follows: Unbound clearance in dog. It is filed as ADME, Canis lupus familiaris. The following applies: in vivo.
The nature of series [4]: Mean residence time in dog. It counts as ADME, Canis lupus familiaris. The following applies: in vivo.
A short description of series [5]: Bioavailability in dog. It counts as ADME, organism-based, Canis lupus familiaris. Particulars: in vivo.
Series [6] is described as follows: Unbound clearance in rat. The following applies: in vivo. It counts as ADME.
Series [7] in a line: Mean residence time in rat. The following applies: in vivo. It is filed as ADME.
A short description of series [8]: Bioavailability in rat. It is filed as ADME, organism-based. Particulars: in vivo.
Series [9] is described as follows: Selectivity index, ratio of IC50 for inhibition of HDM2/p53 interaction in human HCT-116 cells expressing p53/Bla to IC50 for inhibition of N-terminal thioredoxin-His6 tagged HDM2 (17 to 125 residues)/p53 protein-protein interaction (unknown origin). It counts as cell-based.
In series [10] the target is T1, Tumour suppressor p53/oncoprotein Mdm2. As to the kind of experiment: Inhibition of N-terminal thioredoxin-His6 tagged HDM2 (17 to 125 residues)/p53 protein-protein interaction (unknown origin) incubated for 2 hrs by TR-FRET assay.

Turning to `C[C@H]1CC[C@H](Cn2c(N3CCOC[C@H]3c3ccccc3)nc3nc(-c4noc(=O)[nH]4)nc(-c4ccccc4)c32)CC1`, the logD in [1] was 2.72. In addition, the IC50 in [2] came to 632 nM; with HCT-116, 6370 nM.

Take `COCC(C)c1nc2cc(-c3noc(=O)[nH]3)nc(-c3cncc(Cl)c3)c2n1[C@H](C)[C@H]1CC[C@H](C)CC1` (stereo not given in full): in series [1], the logD turned out to be 2.59. The CL free was determined as 59 mL/min/kg in series [3] and 1150 mL/min/kg in series [6]. Moreover, the MRT in series [4] is 3.8 h; in [7], 0.4 h. The bioavailability came to 54% in series [5] and 46% in series [8]. This compound registered an IC50 in the series on HCT-116 of 222 nM.

The compound `C[C@@H](Nc1nc(C(=O)O)nc2nc(N3CCOC[C@H]3c3ccccc3)n(C[C@H]3CC[C@H](C)CC3)c12)C1CCC1` returned an IC50 in series [2] of 1100 nM. The Ratio IC50 in series [9] worked out at 5500.

In the case of `C[C@@H](Nc1nc(C(=O)O)nc2nc(N3CCOC[C@H]3c3ccccc3)n(Cc3ccc(C(F)(F)F)cc3)c12)C1CCC1`, in [10], the midpoint of inhibition, the IC50, lay at 1.8 nM. The compound also came in with a logD in series [1] of 2.32.

Regarding `C[C@@H](Nc1nc(-c2n[nH]c(=O)n2C)nc2nc(N3CCOC[C@H]3c3ccccc3)n(C[C@H]3CC[C@H](C)CC3)c12)C1CCC1`, the IC50 in series [10] worked out at 15 nM; in series [2], 990 nM. The Ratio IC50 in [9] stood at 66.

In the case of `C[C@H]1CC[C@H](Cn2c(N3CCOC[C@H]3c3ccccc3)nc3nc(-c4noc(=O)[nH]4)nc(-c4cccc(Cl)c4)c32)CC1`, the IC50 came out at 1.3 nM in [10], 113 nM in series [2] and 723 nM in the series on HCT-116. The compound further had a logD in series [1] of 3.15.

In series [10], `C[C@@H](Nc1nc(C(=O)O)nc2nc(N[C@@H](CO)c3ccccc3)n(Cc3ccc(C(F)(F)F)cc3)c12)C1CCC1` had an IC50 of 1.5 nM. In addition, the logD in [1] came to 1.94.

As for `CC(C)c1ccnc(-c2nc3nc(C(=O)O)nc(N[C@H](C)C4CCC4)c3n2Cc2ccc(C(F)(F)F)cc2)c1`, in series [10], the IC50 came to 4 nM. The compound further showed a logD in series [1] of 2.66.

As for `CC(C)c1ccnc(-c2nc3nc(C(=O)O)nc(N[C@H](C)C4CCC4)c3n2C[C@H]2CC[C@H](C)CC2)c1` (mixture of isomers), the half-inhibitory concentration (IC50) in [10] was 2.2 nM. Moreover, the logD in series [1] stood at 2.94.

As for `C[C@H]1CC[C@H](Cn2c(N3CCC[C@H]3CF)nc3cc(-c4noc(=O)[nH]4)nc(-c4cncc(Cl)c4)c32)CC1`, in series [1], the logD amounted to 2.42. Further, the CL free in series [3] was determined as 920 mL/min/kg; in series [6], 3244 mL/min/kg. In addition, the MRT in series [4] came to 1.5 h; in series [7] it was 0.25 h. The bioavailability was determined as 37% in [5] and 7% in series [8]. Moreover, 169 nM corresponded to half-maximal inhibition in the series on HCT-116 (IC50).

The compound `Cc1cncc(-c2nc(-c3noc(=O)[nH]3)nc3nc(N4CCOC[C@H]4c4ccccc4)n(C[C@H]4CC[C@H](C)CC4)c23)c1` had a logD in series [1] of 2.17. Moreover, the IC50 in series [2] is 3670 nM; in the series on HCT-116, 7800 nM.

As for `CC(C)c1cccc(-c2nc3nc(C(=O)O)nc(N[C@H](C)C4CCC4)c3n2Cc2ccc(C(F)(F)F)cc2)c1`, in series [10], it took 15 nM to reach half-maximal inhibition (IC50). In series [1], this compound registered a logD of 2.86.

Consider `C[C@@H](Nc1nc(-c2nnc[nH]2)nc2nc(N3CCOC[C@H]3c3ccccc3)n(C[C@H]3CC[C@H](C)CC3)c12)C1CCC1`, for which the IC50 was determined as 11 nM in series [10] and 724 nM in series [2]. Besides, in [9], the Ratio IC50 stood at 66.

Compound `C[C@H]1CC[C@H](Cn2c(N3CCC[C@H]3C(F)(F)F)nc3cc(-c4noc(=O)[nH]4)nc(-c4cncc(Cl)c4)c32)CC1` came in with a logD in series [1] of 2.85. The CL free in series [3] is 1500 mL/min/kg; in [6], 11233 mL/min/kg. Moreover, the MRT is 2.5 h in series [4] and 0.35 h in [7]. Moreover, the bioavailability in series [8] was 11%. Besides, the IC50 in the series with HCT-116 came to 99 nM.

For `CC(C)c1ccnc(-c2nc3nc(C(=O)O)nc(N[C@H](C)C4CCC4)c3n2Cc2ccc(OC(F)(F)F)c(F)c2)c1`, the pH-dependent lipophilicity (logD) in series [1] is 2.84.

As to `C[C@@H](Nc1nc(-c2n[nH]c(=O)o2)nc2nc(N3CCOC[C@H]3c3ccccc3)n(C[C@H]3CC[C@H](C)CC3)c12)C1CCC1`, the results for the IC50 in series [10] and in series [2] were 2 nM and 140 nM, respectively. Further, the Ratio IC50 in series [9] was found to be 70.

`C[C@@H](Nc1nc(C(=O)O)nc2nc(N3CCOC[C@@H]3c3ccccc3)n(Cc3ccc(C(F)(F)F)cc3)c12)C1CCC1` gave a logD in series [1] of 2.34.

`COCC(c1ccccc1)c1nc2cc(-c3noc(=O)[nH]3)nc(-c3cncc(Cl)c3)c2n1C[C@H]1CC[C@H](C)CC1` (mixture of isomers) had a logD in series [1] of 2.62. This compound also yielded an IC50 with HCT-116 of 451 nM.

Compound `CC(C)c1ccnc(-c2nc3nc(C(=O)O)nc(N[C@H](C)C4CCC4)c3n2Cc2ccc(C(F)(F)F)s2)c1` displayed a logD in [1] of 2.67.

Regarding `C[C@@H]1COC[C@@H](C)N1c1nc2cc(-c3noc(=O)[nH]3)nc(-c3cncc(Cl)c3)c2n1C[C@H]1CC[C@H](C)CC1`, the logD in series [1] stood at 2.32. Besides, the CL free in series [3] is 131 mL/min/kg; in [6] it was 2166 mL/min/kg. Also, the values for the MRT in series [4] and in series [7] were 3.9 h and 0.3 h, respectively. Moreover, in [8], the bioavailability was 9%. This compound also had an IC50 in the series with HCT-116 of 248 nM.

In series [1], `C[C@@H](Nc1nc(C(=O)O)nc2nc(NC3CCCCC3)n(Cc3ccc(C(F)(F)F)cc3)c12)C1CCC1` registered a logD of 2.62.

In [10], `CC(C)c1ccnc(-c2nc3nc(C(=O)O)nc(N[C@H](C)C4CCC4)c3n2Cc2ccc(OC(F)(F)F)cc2)c1` yielded an IC50 of 12 nM. For the same compound, in series [1], the logD was 2.81.

As for `COCC(C)c1nc2cc(-c3noc(=O)[nH]3)nc(-c3cncc(Cl)c3)c2n1C[C@H]1CC[C@H](C)CC1` (stereo not given in full), in [1], the logD came out at 2.03. The compound further gave a CL free in [3] of 171 mL/min/kg. The compound further showed an MRT in series [4] of 1.2 h. In the series on HCT-116, this compound returned an IC50 of 1110 nM.

For the compound `Cc1cccc(-c2nc3nc(C(=O)O)nc(NCC4CC4)c3n2CC2CCCCC2)c1`, the IC50 in series [10] was 8400 nM. The same compound showed a pH-dependent lipophilicity (logD) in [1] of 3.7.

`CC(C)c1ccnc(-c2nc3nc(C(=O)O)nc(N[C@H](C)C4CCC4)c3n2C[C@H]2CC[C@@H](C)CC2)c1` came in with an IC50 in series [10] of 348 nM. The compound also registered a logD in series [1] of 2.7.

In series [1], `C[C@H]1CC[C@H](Cn2c(N3CCOC[C@H]3c3ccccc3)nc3nc(-c4noc(=O)[nH]4)nc(-c4cncc(Cl)c4)c32)CC1` came in with a logD of 2.55. For the same compound, the IC50 in [2] was 401 nM; in the series on HCT-116, 1970 nM.

`C[C@@H](Nc1nc(CO)nc2nc(N3CCOC[C@H]3c3ccccc3)n(C[C@H]3CC[C@H](C)CC3)c12)C1CCC1`: the IC50 in series [2] was found to be 4100 nM. Further, in series [9], the Ratio IC50 was 52.

With `C[C@@H](Nc1nc(C(=O)O)nc2nc(-c3ccc4sccc4c3)n(Cc3ccc(Cl)cc3)c12)C1CC1`, the logD in series [1] is 2.2.

As to `C[C@@H](Nc1nc(-c2nc(=O)n(C)[nH]2)nc2nc(N3CCOC[C@H]3c3ccccc3)n(C[C@H]3CC[C@H](C)CC3)c12)C1CCC1`, the results for the IC50 in series [10] and in series [2] were 1.5 nM and 203 nM, respectively. Moreover, in series [9], the Ratio IC50 was found to be 135.

Turning to `CCOC(c1nc2cc(-c3noc(=O)[nH]3)nc(-c3cncc(Cl)c3)c2n1C[C@H]1CC[C@H](C)CC1)C1CC1` (stereo not given in full), the logD in [1] was 2.34. Further, the CL free in series [3] was 206 mL/min/kg. Besides, the MRT in series [4] turned out to be 1.6 h. This compound also showed an IC50 with HCT-116 of 466 nM.
